Reference: the supplement of paper PMC13380429
± gives the standard deviation of the averaged measurements.

Key:
Conditions in all cases: 72 h
Calu-3 [1] = assay: drug sensitivity score (DSS) for viability; higher = more toxic; extreme values may be limits of the assay
Caco-2 [2] = assay: as above
U2OS [3] = assay: as above
HepG2 [4] = assay: as above
Vero E6 [5] = assay: as above
Calu-3 [6] = assay: cell viability relative to DMSO; higher = less toxic
Caco-2 [7] = assay: as above
U2OS [8] = assay: as above
HepG2 [9] = assay: as above
Vero E6 [10] = assay: as above
Calu-3 [11] = assay: relative viability EC50 (midpoint between 100% and the lowest measured viability); higher = less toxic
Caco-2 [12] = assay: as above
U2OS [13] = assay: as above
HepG2 [14] = assay: as above
Vero E6 [15] = assay: as above

| Compound | drug sensitivity score (Calu-3 [1]) | drug sensitivity score (Caco-2 [2]) | drug sensitivity score (U2OS [3]) | drug sensitivity score (HepG2 [4]) | drug sensitivity score (Vero E6 [5]) | cell viability (Calu-3 [6]; 1 nM) [%] | cell viability (Calu-3 [6]; 10 nM) [%] | cell viability (Calu-3 [6]; 100 nM) [%] | cell viability (Calu-3 [6]; 1000 nM) [%] | cell viability (Calu-3 [6]; 10000 nM) [%] | cell viability (Caco-2 [7]; 1 nM) [%] | cell viability (Caco-2 [7]; 10 nM) [%] | cell viability (Caco-2 [7]; 100 nM) [%] | cell viability (Caco-2 [7]; 1000 nM) [%] | cell viability (Caco-2 [7]; 10000 nM) [%] | cell viability (U2OS [8]; 1 nM) [%] | cell viability (U2OS [8]; 10 nM) [%] | cell viability (U2OS [8]; 100 nM) [%] | cell viability (U2OS [8]; 1000 nM) [%] | cell viability (U2OS [8]; 10000 nM) [%] | cell viability (HepG2 [9]; 1 nM) [%] | cell viability (HepG2 [9]; 10 nM) [%] | cell viability (HepG2 [9]; 100 nM) [%] | cell viability (HepG2 [9]; 1000 nM) [%] | cell viability (HepG2 [9]; 10000 nM) [%] | cell viability (Vero E6 [10]; 1 nM) [%] | cell viability (Vero E6 [10]; 10 nM) [%] | cell viability (Vero E6 [10]; 100 nM) [%] | cell viability (Vero E6 [10]; 1000 nM) [%] | cell viability (Vero E6 [10]; 10000 nM) [%] | relative viability EC50 (Calu-3 [11]) [µM] | relative viability EC50 (Caco-2 [12]) [µM] | relative viability EC50 (U2OS [13]) [µM] | relative viability EC50 (HepG2 [14]) [µM] | relative viability EC50 (Vero E6 [15]) [µM] |
| --- | --- | --- | --- | --- | --- | --- | --- | --- | --- | --- | --- | --- | --- | --- | --- | --- | --- | --- | --- | --- | --- | --- | --- | --- | --- | --- | --- | --- | --- | --- | --- | --- | --- | --- | --- |
| CC(=O)N(CC(C)C(=O)O)c1c(I)cc(I)c(N)c1I (stereo not given) [iocetamic-acid] | 0 | 0 | 0 | 0 | 0 | 97.3 | 98.6 | 91.5 | 90.3 | 95.4 | 101 | 99.3 | 90.6 | 95.5 | 99.9 | 98.2 | 103 | 104 | 102 | 101 | 93 | 102 | 99.8 | 102 | 96.1 | 107 | 103 | 97.3 | 105 | 101 | > 10 | > 10 | > 10 | > 10 | > 10 |
| O=C1CC[C@@](c2ccccc2)(C2CCN(Cc3ccc(I)cc3)CC2)C(=O)N1 [iododexetimide] | 0 | 0 | 0 | 1.4 | 0 | 97.8 | 110 | 102 | 107 | 104 | 89 | 104 | 98.1 | 97.7 | 93.9 | 98.8 | 95.5 | 94.3 | 100 | 90.4 | 107 | 96.4 | 92.5 | 87.5 | 83.6 | 98.7 | 100 | 102 | 100 | 93 | > 10 | > 10 | > 10 | > 10 | > 10 |
| CC(C)[N+](C)(CCC(C(N)=O)(c1ccccc1)c1ccccc1)C(C)C [isopropamide-iodide] | 0 | 0 | 0 | 0 | 0 | 97.2 | 90.1 | 96.2 | 94.1 | 87.1 | 102 | 94.2 | 98.1 | 93.9 | 101 | 104 | 99.8 | 103 | 98.4 | 100 | 98.1 | 108 | 93.5 | 100 | 102 | 102 | 104 | 101 | 99.4 | 98.6 | > 10 | > 10 | > 10 | > 10 | > 10 |
| O[C@@H]1CO[C@H]2[C@@H]1OC[C@@H]2O [isosorbide] | 0 | 0 | 0 | 0 | 0 | 97.3 | 97.6 | 106 | 101 | 111 | 94.8 | 93.7 | 91.4 | 102 | 99.8 | 96.8 | 98.9 | 95 | 98.8 | 94.4 | 93.4 | 92.5 | 106 | 99.6 | 105 | 96.7 | 100 | 97.5 | 92.9 | 99.8 | > 10 | > 10 | > 10 | > 10 | > 10 |
| O=C(O)c1ccccc1C(=O)Nc1ccc(-c2ccccc2)cc1 [kartogenin] | 0 | 0 | 0 | 0 | 0 | 98.2 | 101 | 105 | 102 | 103 | 99.2 | 90.6 | 89.7 | 94.2 | 93.7 | 103 | 104 | 100 | 98.6 | 100 | 98.4 | 98.4 | 92.7 | 97.3 | 106 | 103 | 99 | 105 | 97.7 | 98.1 | > 10 | > 10 | > 10 | > 10 | > 10 |
| O=C(c1ccccc1)c1ccc2n1CCC2C(=O)O (stereo not given) [ketorolac] | 0 | 0 | 0 | 0.2 | 0 | 95.7 | 109 | 110 | 99.5 | 104 | 103 | 123 | 110 | 98.3 | 91.8 | 99.5 | 105 | 104 | 96.6 | 92.9 | 102 | 107 | 113 | 97.7 | 87.2 | 102 | 104 | 108 | 105 | 96.1 | > 10 | > 10 | > 10 | > 10 | > 10 |
| CC(=O)NCCc1c(Cc2ccccc2)[nH]c2ccccc12 [luzindole] | 0 | 0 | 0 | 0 | 0 | 98.6 | 102 | 105 | 104 | 96.2 | 97.4 | 105 | 106 | 103 | 102 | 102 | 103 | 100 | 104 | 96.9 | 103 | 99.9 | 104 | 95.5 | 110 | 95.9 | 99 | 95.1 | 94.6 | 97.4 | > 10 | > 10 | > 10 | > 10 | > 10 |
| Cc1cccc(C(C)c2c[nH]cn2)c1C (stereo not given) [medetomidine] | 0 | 0 | 0 | 0 | 0 | 104 ± 2.5 | 98.5 ± 14 | 103 ± 2.5 | 105 ± 11 | 95.2 ± 0.57 | 97.85 ± 0.35 | 88 ± 1.9 | 99.2 ± 5.2 | 100 ± 3.1 | 99.1 ± 1.6 | 100 ± 2.2 | 96.1 ± 0.71 | 102 ± 5.5 | 94.5 ± 0.42 | 97.6 ± 6.1 | 92.5 ± 2.5 | 106 ± 1.3 | 101 ± 2.7 | 102 ± 9.6 | 111.4 ± 0.14 | 95.3 ± 0.57 | 97.5 ± 0.99 | 92.5 ± 3.8 | 99.75 ± 0.071 | 101 ± 3.2 | > 10 | > 10 | > 10 | > 10 | > 10 |
| CCCNC(C)(C)COC(=O)c1ccccc1 [meprylcaine] | 0 | 0 | 0 | 0 | 0 | 102 | 112 | 105 | 99.9 | 94.5 | 98.1 | 104 | 94.3 | 106 | 96.6 | 98.6 | 98.2 | 103 | 97.7 | 99.5 | 86.3 | 100 | 94 | 95.6 | 91.9 | 96 | 103 | 91.8 | 95.2 | 103 | > 10 | > 10 | > 10 | > 10 | > 10 |
| CN1C[C@H](CNC(=O)OCc2ccccc2)C[C@@H]2c3cccc4c3c(cn4C)C[C@H]21 [metergoline] | 0 | 0 | 0 | 0.6 | 0.4 | 101 | 92.2 | 101 | 89.8 | 104 | 116 | 91.3 | 101 | 88.1 | 99.6 | 95.4 | 99.1 | 104 | 96.4 | 95.8 | 101 | 98.5 | 100 | 96.9 | 84.6 | 105 | 105 | 95.2 | 94 | 84.2 | > 10 | > 10 | > 10 | > 10 | > 10 |
| CC(=O)Nc1c(I)c(C(=O)O)c(I)c(N(C)C(C)=O)c1I [metrizoic-acid] | 0 | 0 | 0 | 0 | 0 | 96.6 | 103 | 98.3 | 94.9 | 107 | 92 | 102 | 94 | 97.3 | 92.8 | 97.6 | 105 | 95.9 | 105 | 96.5 | 107 | 104 | 105 | 96.6 | 110 | 104 | 98.6 | 105 | 98.8 | 101 | > 10 | > 10 | > 10 | > 10 | > 10 |
| Cc1cc(-c2ccccc2)nnc1NCCN1CCOCC1 [minaprine] | 0.2 | 0 | 0 | 0 | 0 | 102 | 96.8 | 99.1 | 89.4 | 91.7 | 92 | 96 | 98.4 | 96.1 | 89.3 | 104 | 97.8 | 99.6 | 98.9 | 103 | 96.3 | 99.6 | 96.8 | 94.2 | 93.6 | 101 | 98.1 | 98.8 | 100 | 94.5 | > 10 | > 10 | > 10 | > 10 | > 10 |
| Nc1cccc2c(=O)[nH][nH]c(=O)c12 [monosodium-alpha-luminol] | 0 | 0 | 0 | 0 | 0 | 98.5 | 100 | 97.4 | 105 | 105 | 93 | 88.6 | 90.3 | 92.7 | 97.7 | 98 | 102 | 95.4 | 102 | 103 | 95.9 | 89.7 | 104 | 89.8 | 113 | 102 | 92.7 | 96.1 | 95.2 | 106 | > 10 | > 10 | > 10 | > 10 | > 10 |
